Laboratory results: patent publication US7309788B2, “Method for preparing pyrimidinone compound and pharmaceutically acceptable salts thereof” (Boryung Pharmaceutical Co., Ltd., priority 2001, dated 2007)

Assay: Stability: hourly moisture content (moisture absorption from the air)
Format: physicochemical
From the text: As a result, the moisture content increased, as the time went by. […] The elementary analysis data for the aforementioned hydrates is illustrated in the following Table 2.

CCCCc1nc(C)c(CC(=S)N(C)C)c(=O)n1Cc1ccc(-c2ccccc2-c2nnn[nH]2)cc1 [Example 3, 2-n-butyl-5-dimethylaminothiocarbonylmethyl-6-methyl-3-[[2′-(1 H-tetrazol-5-yl)biphenyl-4-yl]methyl]-pyrimidin-4(3H)-one]
moisture content (60% RH, Time 1 hour): 6.2% | moisture content (60% RH, Time 2 hour): 9.1% | moisture content (60% RH, Time 3 hour): 9.15% | moisture content (60% RH, Time 4 hour): 9.1% | moisture content (60% RH, Time 5 hour): 9.2% | moisture content (60% RH, Time 6 hour): 9.1% | moisture content (75% RH, Time 1 hour): 9.05% | moisture content (75% RH, Time 2 hour): 9.1% | moisture content (75% RH, Time 3 hour): 9.1% | moisture content (75% RH, Time 4 hour): 9.15% | moisture content (75% RH, Time 5 hour): 9.2% | moisture content (75% RH, Time 6 hour): 9.1% | moisture content (Room temperature & Room humidity, Time 1 hour): 3.4% | moisture content (Room temperature & Room humidity, Time 2 hour): 5.6% | moisture content (Room temperature & Room humidity, Time 3 hour): 9.1% | moisture content (Room temperature & Room humidity, Time 4 hour): 9.2% | moisture content (Room temperature & Room humidity, Time 5 hour): 9.1% | moisture content (Room temperature & Room humidity, Time 6 hour): 9.1%
